3 compounds from US10231954B2, “Neurodegenerative therapies” (LYTIX BIOPHARMA AS, priority 2014, dated 2019) can be followed below.

What all share (type): biochemical
In assay [1] the target is DYRK1A (Homo sapiens, UniProt Q13627). Briefly: Determination of IC50 values against DYRK1a. The following applies: average of duplicate; 10 concentrations 100 μM to 0.003 μM; read-out: IC 50 against DYRK1a. Here is the method:
The kinase assay was carried out using Multidrop 384's at room temperature in a total assay volume of 25.5 μl. To plates containing 0.5 μl of compounds, DMSO controls or acid blanks, 15 μl of an enzyme mix containing the DYRK1a enzyme and peptide/protein substrate in buffer was added. Compounds were pre-incubated in the presence of the enzyme and peptide/protein substrate for 5 minutes before initiation of the reaction by addition of 10 μl of ATP (final concentration selected for each kinase at 5, 20 or 50 μM). Assays were carried out for 30 minutes at room temperature before termination by the addition of 5 μl orthophosphoric acid. The assay plates were then harvested onto P81 Unifilter Plates by a Packard Harvester (wash buffer is 50 mM orthophosphoric acid) and dried in air. The dry Unifilter plates were then sealed by the addition of MicroScint O and counted in Packard Topcount NXT scintillation counters.

For assay [2], the target named is MKK1 (Homo sapiens, UniProt Q02750). In words: Kinase profiling MKK1. The following applies: 100 micromolar inhibitor concentration; 100 is no change. From the text:
(§1) Any value less that 25 is considered to be highly significant inhibition.

Assay [3] addresses JNK1 (Homo sapiens, UniProt P45983). In words: Kinase profiling JNK1. The following applies: 100 micromolar inhibitor concentration; 100 is no change.
Description: as §1

Assay [4] has as its target p38a MAPK (Homo sapiens, UniProt Q16539). Briefly: Kinase profiling p38a MAPK. The following applies: 100 micromolar inhibitor concentration; 100 is no change.
Description: as §1

Assay [5] has as its target RSK1 (Homo sapiens, UniProt Q15418). Briefly: Kinase profiling RSK1. Particulars: 100 micromolar inhibitor concentration; 100 is no change.
Description: as §1

The target in assay [6] is T1, PDK1 (Homo sapiens, UniProt O15530).
T1 sequence (O15530 1-556): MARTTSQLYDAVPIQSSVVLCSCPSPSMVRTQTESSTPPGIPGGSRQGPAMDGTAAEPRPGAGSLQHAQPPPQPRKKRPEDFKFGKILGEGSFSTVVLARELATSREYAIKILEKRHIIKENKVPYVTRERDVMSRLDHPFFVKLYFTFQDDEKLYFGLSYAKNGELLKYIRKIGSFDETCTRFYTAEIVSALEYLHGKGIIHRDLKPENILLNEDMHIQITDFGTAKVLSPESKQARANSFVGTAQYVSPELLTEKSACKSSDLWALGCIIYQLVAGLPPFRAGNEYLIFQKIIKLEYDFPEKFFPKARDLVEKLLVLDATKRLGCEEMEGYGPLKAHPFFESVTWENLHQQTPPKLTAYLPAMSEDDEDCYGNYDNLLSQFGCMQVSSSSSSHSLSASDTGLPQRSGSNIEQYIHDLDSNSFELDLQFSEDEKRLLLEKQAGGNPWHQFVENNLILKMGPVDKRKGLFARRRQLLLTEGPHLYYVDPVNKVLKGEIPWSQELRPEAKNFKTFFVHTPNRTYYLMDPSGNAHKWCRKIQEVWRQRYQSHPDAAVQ
Briefly: Kinase profiling PDK1. The following applies: 100 micromolar inhibitor concentration; 100 is no change.
Description: as §1

For assay [7], the target named is PKBa (Homo sapiens, UniProt P31749). In words: Kinase profiling PKBa. Particulars: 100 micromolar inhibitor concentration; 100 is no change.
Description: as §1

The target of assay [8] is T2, SGK1 (Homo sapiens, UniProt O00141).
T2 sequence (O00141 1-431): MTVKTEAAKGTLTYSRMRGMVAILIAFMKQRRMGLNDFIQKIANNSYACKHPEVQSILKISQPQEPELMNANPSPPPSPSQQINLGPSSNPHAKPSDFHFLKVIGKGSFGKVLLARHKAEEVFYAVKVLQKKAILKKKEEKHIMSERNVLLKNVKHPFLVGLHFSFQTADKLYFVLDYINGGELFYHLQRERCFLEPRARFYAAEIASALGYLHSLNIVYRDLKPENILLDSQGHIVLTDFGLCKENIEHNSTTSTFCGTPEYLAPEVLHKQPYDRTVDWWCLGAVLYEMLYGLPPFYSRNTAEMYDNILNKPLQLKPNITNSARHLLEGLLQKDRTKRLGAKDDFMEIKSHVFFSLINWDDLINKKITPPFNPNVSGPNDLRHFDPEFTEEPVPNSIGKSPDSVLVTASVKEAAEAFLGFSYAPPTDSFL
Briefly: Kinase profiling SGK1. Particulars: 100 micromolar inhibitor concentration; 100 is no change.
Description: as §1

For assay [9], the target named is S6K1 (Homo sapiens, UniProt P23443). In words: Kinase profiling S6K1. Particulars: 100 micromolar inhibitor concentration; 100 is no change.
Description: as §1

Assay [10] concerns the target PKA (Homo sapiens, UniProt P17612). In words: Kinase profiling PKA. Particulars: 100 micromolar inhibitor concentration; 100 is no change.
Description: as §1

In assay [11] the target is ROCK 2 (Homo sapiens, UniProt O75116). In words: Kinase profiling ROCK 2. The following applies: 100 micromolar inhibitor concentration; 100 is no change.
Description: as §1

The target of assay [12] is PRK2 (Homo sapiens, UniProt Q16513). In words: Kinase profiling PRK2. The following applies: 100 micromolar inhibitor concentration; 100 is no change.
Description: as §1

The target in assay [13] is PKCa (Homo sapiens, UniProt P17252). Briefly: Kinase profiling PKCa. The following applies: 100 micromolar inhibitor concentration; 100 is no change.
Description: as §1

In assay [14] the target is T3, PKD1 (Homo sapiens, UniProt Q15139).
T3 sequence (Q15139 1-912): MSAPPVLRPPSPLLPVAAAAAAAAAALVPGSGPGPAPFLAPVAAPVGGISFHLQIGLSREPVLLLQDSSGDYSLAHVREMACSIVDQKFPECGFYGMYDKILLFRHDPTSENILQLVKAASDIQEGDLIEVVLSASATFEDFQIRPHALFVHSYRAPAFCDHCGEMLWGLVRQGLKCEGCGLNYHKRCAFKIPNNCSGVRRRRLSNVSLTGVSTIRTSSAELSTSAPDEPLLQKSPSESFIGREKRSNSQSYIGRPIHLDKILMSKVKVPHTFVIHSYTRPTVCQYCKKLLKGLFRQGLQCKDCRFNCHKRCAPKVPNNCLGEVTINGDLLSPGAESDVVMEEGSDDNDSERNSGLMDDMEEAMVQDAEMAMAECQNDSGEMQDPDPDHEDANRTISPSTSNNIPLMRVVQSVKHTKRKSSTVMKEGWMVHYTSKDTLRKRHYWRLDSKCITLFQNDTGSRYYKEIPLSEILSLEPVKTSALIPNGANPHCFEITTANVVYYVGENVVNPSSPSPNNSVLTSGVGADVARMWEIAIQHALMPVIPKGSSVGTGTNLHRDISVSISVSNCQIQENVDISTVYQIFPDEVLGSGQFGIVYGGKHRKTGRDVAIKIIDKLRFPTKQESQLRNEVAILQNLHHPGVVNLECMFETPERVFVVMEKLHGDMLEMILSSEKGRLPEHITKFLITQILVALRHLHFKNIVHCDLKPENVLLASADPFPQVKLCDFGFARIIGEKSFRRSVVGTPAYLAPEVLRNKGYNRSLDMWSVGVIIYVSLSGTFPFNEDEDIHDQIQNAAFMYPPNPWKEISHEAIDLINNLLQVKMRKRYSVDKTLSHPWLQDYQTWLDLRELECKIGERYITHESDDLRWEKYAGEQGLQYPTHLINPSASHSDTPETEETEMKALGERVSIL
In words: Kinase profiling PKD1. The following applies: 100 micromolar inhibitor concentration; 100 is no change.
Description: as §1

SMILES strings stand for the structures.

Sequence of MKK1 (Q02750 whole entry, species assumed): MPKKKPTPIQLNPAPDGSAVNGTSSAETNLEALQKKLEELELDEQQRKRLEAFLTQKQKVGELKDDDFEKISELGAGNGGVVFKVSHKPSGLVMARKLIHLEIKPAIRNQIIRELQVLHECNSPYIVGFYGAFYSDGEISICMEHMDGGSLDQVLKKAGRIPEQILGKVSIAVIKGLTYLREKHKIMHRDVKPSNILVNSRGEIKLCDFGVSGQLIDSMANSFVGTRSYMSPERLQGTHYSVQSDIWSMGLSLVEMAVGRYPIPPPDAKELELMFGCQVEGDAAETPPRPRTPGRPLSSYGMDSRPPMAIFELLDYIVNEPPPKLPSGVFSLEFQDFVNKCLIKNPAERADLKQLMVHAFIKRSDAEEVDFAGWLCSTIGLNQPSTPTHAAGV
Sequence of RSK1 (Q15418 whole entry, species assumed): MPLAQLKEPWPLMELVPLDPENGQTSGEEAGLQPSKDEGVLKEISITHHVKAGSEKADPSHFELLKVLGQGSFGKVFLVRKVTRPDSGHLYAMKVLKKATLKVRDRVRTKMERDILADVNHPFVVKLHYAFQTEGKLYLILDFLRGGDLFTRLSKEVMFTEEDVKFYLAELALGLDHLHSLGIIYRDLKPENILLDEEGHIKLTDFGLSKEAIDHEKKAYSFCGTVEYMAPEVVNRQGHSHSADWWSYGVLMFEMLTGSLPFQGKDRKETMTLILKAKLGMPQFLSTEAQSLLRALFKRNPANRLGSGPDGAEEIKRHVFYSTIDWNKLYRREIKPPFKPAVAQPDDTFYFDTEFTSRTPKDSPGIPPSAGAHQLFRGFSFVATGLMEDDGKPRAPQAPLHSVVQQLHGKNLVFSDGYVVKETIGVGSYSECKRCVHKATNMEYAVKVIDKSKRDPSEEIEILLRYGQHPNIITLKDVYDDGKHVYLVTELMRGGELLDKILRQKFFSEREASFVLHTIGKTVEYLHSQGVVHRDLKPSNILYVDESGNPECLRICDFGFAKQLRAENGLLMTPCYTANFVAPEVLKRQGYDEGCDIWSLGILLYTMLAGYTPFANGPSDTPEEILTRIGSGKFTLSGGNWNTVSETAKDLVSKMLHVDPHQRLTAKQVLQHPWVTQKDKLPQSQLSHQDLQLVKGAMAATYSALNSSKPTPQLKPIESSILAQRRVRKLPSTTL
Sequence of ROCK 2 (O75116 whole entry, species assumed): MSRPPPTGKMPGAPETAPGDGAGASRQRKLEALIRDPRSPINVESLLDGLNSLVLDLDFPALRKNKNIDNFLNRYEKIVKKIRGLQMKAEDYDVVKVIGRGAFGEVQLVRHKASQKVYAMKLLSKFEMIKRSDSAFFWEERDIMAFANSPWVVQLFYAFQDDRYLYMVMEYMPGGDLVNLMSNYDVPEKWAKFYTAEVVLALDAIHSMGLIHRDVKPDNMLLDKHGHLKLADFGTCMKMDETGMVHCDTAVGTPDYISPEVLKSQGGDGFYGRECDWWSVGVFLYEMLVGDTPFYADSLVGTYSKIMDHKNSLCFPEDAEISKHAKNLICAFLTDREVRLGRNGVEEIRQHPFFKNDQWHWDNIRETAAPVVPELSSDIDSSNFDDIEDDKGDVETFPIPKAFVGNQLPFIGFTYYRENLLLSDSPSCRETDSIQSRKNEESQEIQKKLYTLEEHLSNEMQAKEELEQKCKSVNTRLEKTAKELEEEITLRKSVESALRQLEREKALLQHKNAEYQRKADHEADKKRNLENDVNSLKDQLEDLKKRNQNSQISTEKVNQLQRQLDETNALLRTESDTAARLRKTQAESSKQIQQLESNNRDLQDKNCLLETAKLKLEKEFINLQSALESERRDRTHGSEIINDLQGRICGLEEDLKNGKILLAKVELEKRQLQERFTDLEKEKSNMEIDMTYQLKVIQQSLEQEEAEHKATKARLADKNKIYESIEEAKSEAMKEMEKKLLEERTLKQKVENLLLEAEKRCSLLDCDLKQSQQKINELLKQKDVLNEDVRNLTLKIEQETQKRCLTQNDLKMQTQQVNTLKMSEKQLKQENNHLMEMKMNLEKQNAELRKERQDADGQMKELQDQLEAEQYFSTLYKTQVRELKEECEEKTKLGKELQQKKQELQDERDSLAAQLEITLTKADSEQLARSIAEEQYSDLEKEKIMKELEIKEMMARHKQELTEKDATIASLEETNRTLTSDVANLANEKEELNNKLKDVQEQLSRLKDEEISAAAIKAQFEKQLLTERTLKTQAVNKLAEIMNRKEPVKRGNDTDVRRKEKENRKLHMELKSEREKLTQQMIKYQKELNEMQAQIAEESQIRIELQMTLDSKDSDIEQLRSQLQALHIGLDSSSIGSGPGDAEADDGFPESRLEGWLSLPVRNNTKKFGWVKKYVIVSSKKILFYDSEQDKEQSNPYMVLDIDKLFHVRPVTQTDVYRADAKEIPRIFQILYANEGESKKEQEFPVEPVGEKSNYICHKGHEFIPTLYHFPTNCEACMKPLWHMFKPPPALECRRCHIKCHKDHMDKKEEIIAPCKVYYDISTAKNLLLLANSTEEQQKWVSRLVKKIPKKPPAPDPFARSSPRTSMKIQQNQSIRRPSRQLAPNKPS
Sequence of p38a MAPK (Q16539 whole entry): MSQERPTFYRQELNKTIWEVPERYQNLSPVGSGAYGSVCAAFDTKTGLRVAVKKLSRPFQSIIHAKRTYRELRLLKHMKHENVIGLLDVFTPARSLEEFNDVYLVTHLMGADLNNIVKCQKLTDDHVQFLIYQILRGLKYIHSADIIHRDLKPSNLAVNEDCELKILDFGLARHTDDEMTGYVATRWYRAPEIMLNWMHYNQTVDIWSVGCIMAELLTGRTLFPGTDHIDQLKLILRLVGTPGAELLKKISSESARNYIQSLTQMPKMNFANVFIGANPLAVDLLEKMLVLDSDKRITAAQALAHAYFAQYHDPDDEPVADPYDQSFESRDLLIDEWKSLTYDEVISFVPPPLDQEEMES
Sequence of PKBa (P31749 whole entry): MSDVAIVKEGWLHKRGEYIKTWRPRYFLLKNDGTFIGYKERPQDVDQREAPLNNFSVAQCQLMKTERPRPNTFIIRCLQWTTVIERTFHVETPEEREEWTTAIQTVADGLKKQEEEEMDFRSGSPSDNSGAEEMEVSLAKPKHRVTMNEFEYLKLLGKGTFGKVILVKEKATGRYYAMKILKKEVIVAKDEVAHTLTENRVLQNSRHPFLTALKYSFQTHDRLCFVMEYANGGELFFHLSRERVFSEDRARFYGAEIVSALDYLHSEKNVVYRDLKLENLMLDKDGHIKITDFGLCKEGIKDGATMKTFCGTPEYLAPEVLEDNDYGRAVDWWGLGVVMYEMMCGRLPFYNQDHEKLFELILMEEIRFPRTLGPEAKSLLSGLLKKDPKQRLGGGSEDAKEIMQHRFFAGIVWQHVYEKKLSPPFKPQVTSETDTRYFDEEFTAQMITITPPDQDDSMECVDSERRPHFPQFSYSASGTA
Sequence of PRK2 (Q16513 whole entry, species assumed): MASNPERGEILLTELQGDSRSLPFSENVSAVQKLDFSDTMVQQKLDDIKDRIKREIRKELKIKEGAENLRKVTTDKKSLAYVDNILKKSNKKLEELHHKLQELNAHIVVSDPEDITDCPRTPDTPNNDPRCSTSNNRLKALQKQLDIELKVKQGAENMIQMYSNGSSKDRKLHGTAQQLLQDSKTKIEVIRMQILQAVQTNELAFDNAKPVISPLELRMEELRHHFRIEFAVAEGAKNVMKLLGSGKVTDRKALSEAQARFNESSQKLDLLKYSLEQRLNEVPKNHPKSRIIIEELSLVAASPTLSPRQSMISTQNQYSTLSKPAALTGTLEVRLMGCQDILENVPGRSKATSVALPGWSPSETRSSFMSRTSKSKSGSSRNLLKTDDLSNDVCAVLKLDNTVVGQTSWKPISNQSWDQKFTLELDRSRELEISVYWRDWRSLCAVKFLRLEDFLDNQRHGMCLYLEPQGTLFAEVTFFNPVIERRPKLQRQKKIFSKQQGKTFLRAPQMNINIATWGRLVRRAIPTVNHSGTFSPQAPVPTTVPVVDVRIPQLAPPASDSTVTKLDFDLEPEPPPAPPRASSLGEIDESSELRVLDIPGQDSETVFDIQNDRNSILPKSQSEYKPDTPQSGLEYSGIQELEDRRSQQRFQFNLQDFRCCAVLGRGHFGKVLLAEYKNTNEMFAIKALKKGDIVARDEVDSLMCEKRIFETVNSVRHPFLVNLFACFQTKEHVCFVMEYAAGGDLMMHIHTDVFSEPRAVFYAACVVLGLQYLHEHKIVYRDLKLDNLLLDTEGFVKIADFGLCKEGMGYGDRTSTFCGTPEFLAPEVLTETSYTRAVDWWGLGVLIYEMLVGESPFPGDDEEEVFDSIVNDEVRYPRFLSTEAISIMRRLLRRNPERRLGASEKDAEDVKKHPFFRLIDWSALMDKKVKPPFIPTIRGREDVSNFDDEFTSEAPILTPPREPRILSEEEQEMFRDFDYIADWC

For `COc1ccc2nc(NC(C)=O)sc2c1` [Compound 03-20], the IC50 in assay [1] was 12.3 µM.

With `CC(=O)Nc1ccc(C(=O)Nc2nc3ccc(O)cc3s2)cc1` [Compound 03-74], the “residual kinase activity, MKK1” value in assay [2] turned out to be 35. Further, in assay [3], the “residual kinase activity, JNK1” value is on record as 80. For the same compound, the “residual kinase activity, p38a MAPK” value in assay [4] was 106. For the same compound, the “residual kinase activity, RSK1” value in [5] turned out to be 19. Further, in assay [6], the “residual kinase activity, PDK1” value was determined as 93. Further, the “residual kinase activity, PKBa” value in [7] turned out to be 87. Also, the “residual kinase activity, SGK1” value in assay [8] is 59. The “residual kinase activity, S6K1” value in assay [9] was 29. Also, the “residual kinase activity, PKA” value in [10] stood at 90. The “residual kinase activity, ROCK 2” value in assay [11] is listed as 32. For the same compound, in [12], the “residual kinase activity, PRK2” value is 54. Besides, the “residual kinase activity, PKCa” value in assay [13] came out at 92. Moreover, the “residual kinase activity, PKD1” value in assay [14] is reported as 53.

Regarding `CC(=O)Nc1nc2ccc(C(N)=O)cc2s1` [Compound 08-70], in [1], the IC50 is 15.7 µM.
